Experimental data taken from patent publication US12077503B2, “Substituted cyclic amides and their use as herbicides” (FMC CORPORATION, priority 2015, dated 2024).
Like-named read-outs stand apart in the source and are kept apart here.

Tests used:
Assay type in all cases: in vivo
[1] = system: ducksalad (Heteranthera limosa); test: Test B flooded paddy test; settings: Heteranthera limosa, 250 g ai/ha, Flood, read-out: Ducksalad plant response rating
How it was run: (§1)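 Rating scale 0–100 (visual, vs untreated controls) after a 13–15 d greenhouse period; application to the flood layer, 3 cm above soil and maintained; plants at 2-leaf stage when treated.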

[2] = system: barnyardgrass (Echinochloa crus-galli); test: Test B flooded paddy test; settings: Echinochloa crus-galli, 250 g ai/ha, Flood, read-out: Barnyardgrass plant response rating
How it was run: as §1

[3] = system: sedge, umbrella (small-flower umbrella sedge, Cyperus difformis); test: Test B flooded paddy test; settings: Cyperus difformis, 250 g ai/ha, Flood, read-out: Sedge, Umbrella plant response rating
How it was run: as §1

rice (Oryra sativa) = test: Test B flooded paddy test; settings: Oryza sativa, 250 g ai/ha, Flood, read-out: Rice plant response rating
How it was run: as §1

[4] = system: Galium (catchweed bedstraw, Galium aparine); test: Test A postemergence; settings: Galium, post-emergence, 240 h; for pest or weed control at 125 g/ha: 125 g ai/ha
How it was run: (§2)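 Preemergence soil spray on seeded pots or post-emergence spray on 1–2 leaf plants, in loam–sand blend. Greenhouse ~10 d. Visual rating 0–100 against untreated plants.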

corn (Zea mays) = test: Test A postemergence; settings: Zea mays, post-emergence, 240 h
How it was run: as §2

Kochia (Kochia scoparia) [5] = test: Test A postemergence; settings: Bassia scoparia, post-emergence, 240 h; for pest or weed control at 125 g/ha: 125 g ai/ha
How it was run: as §2

[6] = system: pigweed (Amaranthus retroflexus); test: Test A postemergence; settings: Amaranthus retroflexus, post-emergence, 240 h; for pest or weed control at 125 g/ha: 125 g ai/ha
How it was run: as §2

[7] = system: barnyardgrass (Echinochloa crus-galli); test: Test A preemergence; settings: Echinochloa crus-galli, pre-emergence, 240 h, preemergence; for pest or weed control at 125 g/ha: 125 g ai/ha; for pest or weed control at 500 g/ha: 500 g ai/ha
How it was run: as §2

Kochia (Kochia scoparia) [8] = test: Test A preemergence; settings: Bassia scoparia, pre-emergence, 240 h, preemergence; for pest or weed control at 125 g/ha: 125 g ai/ha; for pest or weed control at 500 g/ha: 500 g ai/ha
How it was run: as §2

[9] = system: ragweed (common ragweed, Ambrosia elatior); test: Test A preemergence; settings: Ambrosia artemisiifolia, pre-emergence, 240 h, preemergence; for pest or weed control at 125 g/ha: 125 g ai/ha; for pest or weed control at 500 g/ha: 500 g ai/ha
How it was run: as §2

[10] = system: ryegrass, Italian (Italian ryegrass, Lolium multiflorum); test: Test A preemergence; settings: Lolium multiflorum, pre-emergence, 240 h, preemergence; for pest or weed control at 125 g/ha: 125 g ai/ha; for pest or weed control at 500 g/ha: 500 g ai/ha
How it was run: as §2

[11] = system: giant foxtail (Setaria faberii); test: Test A preemergence; settings: Setaria faberi, pre-emergence, 240 h, preemergence; for pest or weed control at 125 g/ha: 125 g ai/ha; for pest or weed control at 500 g/ha: 500 g ai/ha
How it was run: as §2

[12] = system: pigweed (Amaranthus retroflexus); test: Test A preemergence; settings: Amaranthus retroflexus, pre-emergence, 240 h, preemergence; for pest or weed control at 125 g/ha: 125 g ai/ha; for pest or weed control at 500 g/ha: 500 g ai/ha
[13] = 0 to 100 scale where 0 is no effect and 100 is complete control
[14] = scale of 0 to 100 where 0 is no effect and 100 is complete control

## Cc1nc([C@H]2CN(C)C(=O)[C@@H]2C(=O)Nc2cccc(F)c2F)cs1 [Compound 1281]
[1]; [13]
  pest or weed control at 250 g/ha: 50%
[2]; [13]
  pest or weed control at 250 g/ha: 0%
[3]; [13]
  pest or weed control at 250 g/ha: 0%
Rice (Oryra sativa); [13]
  pest or weed control at 250 g/ha: 0%
[4]; Postemergence, visual rating about 10 d after treatment, read-out: Galium plant response rating (0 to 100 scale)
  pest or weed control at 125 g/ha: 0%
[4]; Postemergence, 500 g ai/ha, visual injury, 0 to 100 scale (0 no effect, 100 complete control), approx. 10 d, read-out: Plant response rating, Galium
  pest or weed control at 500 g/ha: 50%
Corn (Zea mays); 125 g ai/ha, Postemergence, visual rating about 10 d after treatment, read-out: Corn plant response rating (0 to 100 scale)
  plant injury at 125 g/ha: 0%
Corn (Zea mays); Postemergence, 500 g ai/ha, visual injury, 0 to 100 scale (0 no effect, 100 complete control), approx. 10 d
  Corn plant response rating (crop injury, 0 = no effect, 100 = complete kill) at 500 g/ha: 0%
Kochia (Kochia scoparia) [5]; Postemergence, visual rating about 10 d after treatment, read-out: Kochia plant response rating (0 to 100 scale)
  pest or weed control at 125 g/ha: 0%
Kochia (Kochia scoparia) [5]; Postemergence, 500 g ai/ha, visual injury, 0 to 100 scale (0 no effect, 100 complete control), approx. 10 d, read-out: Plant response rating, Kochia
  pest or weed control at 500 g/ha: 30%
[6]; Postemergence, visual rating about 10 d after treatment, read-out: Pigweed plant response rating (0 to 100 scale)
  pest or weed control at 125 g/ha: 0%
[6]; Postemergence, 500 g ai/ha, visual injury, 0 to 100 scale (0 no effect, 100 complete control), approx. 10 d, read-out: Plant response rating, Pigweed
  pest or weed control at 500 g/ha: 0%
[7]; visual injury rating, 0 to 100 scale where 0 is no effect and 100 is complete control, approximately 10 d, read-out: Barnyardgrass plant response rating
  pest or weed control at 125 g/ha: 40%
[7]; 0 to 100 scale where 0 is no effect and 100 is complete control, read-out: Barnyardgrass plant response rating
  pest or weed control at 500 g/ha: 90%
Kochia (Kochia scoparia) [8]; visual injury rating, 0 to 100 scale where 0 is no effect and 100 is complete control, approximately 10 d, read-out: Kochia plant response rating
  pest or weed control at 125 g/ha: 0%
Kochia (Kochia scoparia) [8]; 0 to 100 scale where 0 is no effect and 100 is complete control, read-out: Kochia plant response rating
  pest or weed control at 500 g/ha: 60%
[9]; visual injury rating, 0 to 100 scale where 0 is no effect and 100 is complete control, approximately 10 d, read-out: Ragweed plant response rating
  pest or weed control at 125 g/ha: 0%
[9]; 0 to 100 scale where 0 is no effect and 100 is complete control, read-out: Ragweed plant response rating
  pest or weed control at 500 g/ha: 60%
[10]; visual injury rating, 0 to 100 scale where 0 is no effect and 100 is complete control, approximately 10 d, read-out: Ryegrass, Italian plant response rating
  pest or weed control at 125 g/ha: 0%
[10]; 0 to 100 scale where 0 is no effect and 100 is complete control, read-out: Ryegrass, Italian plant response rating
  pest or weed control at 500 g/ha: 20%
[11]; visual injury rating, 0 to 100 scale where 0 is no effect and 100 is complete control, approximately 10 d, read-out: Foxtail, Giant plant response rating
  pest or weed control at 125 g/ha: 40%
[11]; 0 to 100 scale where 0 is no effect and 100 is complete control, read-out: Foxtail, Giant plant response rating
  pest or weed control at 500 g/ha: 90%
[12]; visual injury rating, 0 to 100 scale where 0 is no effect and 100 is complete control, approximately 10 d, read-out: Pigweed plant response rating
  pest or weed control at 125 g/ha: 30%
[12]; 0 to 100 scale where 0 is no effect and 100 is complete control, read-out: Pigweed plant response rating
  pest or weed control at 500 g/ha: 40%

## COc1ccc([C@H]2CNC(=O)[C@@H]2C(=O)Nc2ccccc2S(C)(=O)=O)cc1F [Compound 721]
[1]; [14]
  pest or weed control at 250 g/ha: 100%
[2]; [14]
  pest or weed control at 250 g/ha: 0%
[3]; [14]
  pest or weed control at 250 g/ha: 0%
Rice (Oryra sativa); [14]
  pest or weed control at 250 g/ha: 0%
[4]; postemergence, visual injury after approximately 10 d, 0 to 100 scale (0 no effect, 100 complete control), read-out: Plant response rating, Galium
  pest or weed control at 125 g/ha: 20%
Corn (Zea mays); 125 g ai/ha, postemergence, visual injury after approximately 10 d, 0 to 100 scale (0 no effect, 100 complete control)
  Corn plant response rating (crop injury, 0 = no effect, 100 = complete kill) at 125 g/ha: 0%
Kochia (Kochia scoparia) [5]; postemergence, visual injury after approximately 10 d, 0 to 100 scale (0 no effect, 100 complete control), read-out: Plant response rating, Kochia
  pest or weed control at 125 g/ha: 0%
[6]; postemergence, visual injury after approximately 10 d, 0 to 100 scale (0 no effect, 100 complete control), read-out: Plant response rating, Pigweed
  pest or weed control at 125 g/ha: 0%
[7]; visual rating after approx. 10 d, 0 to 100 scale where 0 is no effect and 100 is complete control, read-out: Plant response rating, Barnyardgrass
  pest or weed control at 125 g/ha: 30%
[7]; 0 to 100 scale, 0 = no effect, 100 = complete control, read-out: Plant response rating, Barnyardgrass
  pest or weed control at 500 g/ha: 80%
Kochia (Kochia scoparia) [8]; visual rating after approx. 10 d, 0 to 100 scale where 0 is no effect and 100 is complete control, read-out: Plant response rating, Kochia
  pest or weed control at 125 g/ha: 0%
Kochia (Kochia scoparia) [8]; 0 to 100 scale, 0 = no effect, 100 = complete control, read-out: Plant response rating, Kochia
  pest or weed control at 500 g/ha: 0%
[9]; visual rating after approx. 10 d, 0 to 100 scale where 0 is no effect and 100 is complete control, read-out: Plant response rating, Ragweed
  pest or weed control at 125 g/ha: 0%
[9]; 0 to 100 scale, 0 = no effect, 100 = complete control, read-out: Plant response rating, Ragweed
  pest or weed control at 500 g/ha: 50%
[10]; visual rating after approx. 10 d, 0 to 100 scale where 0 is no effect and 100 is complete control, read-out: Plant response rating, Ryegrass, Italian
  pest or weed control at 125 g/ha: 0%
[10]; 0 to 100 scale, 0 = no effect, 100 = complete control, read-out: Plant response rating, Ryegrass, Italian
  pest or weed control at 500 g/ha: 20%
[11]; visual rating after approx. 10 d, 0 to 100 scale where 0 is no effect and 100 is complete control, read-out: Plant response rating, Foxtail, Giant
  pest or weed control at 125 g/ha: 30%
[11]; 0 to 100 scale, 0 = no effect, 100 = complete control, read-out: Plant response rating, Foxtail, Giant
  pest or weed control at 500 g/ha: 90%
[12]; visual rating after approx. 10 d, 0 to 100 scale where 0 is no effect and 100 is complete control, read-out: Plant response rating, Pigweed
  pest or weed control at 125 g/ha: 0%
[12]; 0 to 100 scale, 0 = no effect, 100 = complete control, read-out: Plant response rating, Pigweed
  pest or weed control at 500 g/ha: 0%
